Laboratory results reported in US6689773B2, “Uracil substituted phenyl sulfamoyl carboxamides” (BASF Aktiengesellschaft, priority 2000, dated 2004).

Assays:
Assay type in all cases: in vivo
[1] = tested on: CHEAL, Lambsquarters, Chenopodium album, L. Common; experiment: Preemergence herbicidal evaluation (Example 148); conditions: rating scale 0-9, two to four weeks after treatment
Outline: (§1)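 Test compound was applied in aqueous acetone to freshly planted cups at an equivalent of about 0.125 to 0.250 kg/ha, before emergence. Ratings, taken after two to four weeks of greenhouse growth, were averaged where a compound was tested more than once.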

[2] = tested on: GLXMA, Soybean, Glycine max, (L.) Merr.; experiment: Preemergence herbicidal evaluation (Example 148); conditions: rating scale 0-9, two to four weeks after treatment
Outline: as §1

[3] = tested on: SETVI, Green foxtail, Setaria viridis, (L.)Beau; experiment: Preemergence herbicidal evaluation (Example 148); conditions: rating scale 0-9, two to four weeks after treatment
Outline: as §1

[4] = tested on: AMBEL, Ragweed, Common, Ambrosia artemiisifolia, L.; experiment: Preemergence herbicidal evaluation (Example 148); conditions: rating scale 0-9, two to four weeks after treatment
Outline: as §1

[5] = tested on: TRZAW, Winter wheat, Tritium Aestivum, L. (Winter); experiment: Preemergence herbicidal evaluation (Example 148); conditions: rating scale 0-9, two to four weeks after treatment
Outline: as §1

[6] = tested on: ZEAMX, Field corn, Zea mays L.; experiment: Preemergence herbicidal evaluation (Example 148); conditions: rating scale 0-9, two to four weeks after treatment
Outline: as §1

[7] = tested on: ABUTH, Velvetleaf, Abutilon theophrasti, Medic.; experiment: Preemergence herbicidal evaluation (Example 148); conditions: rating scale 0-9, two to four weeks after treatment
Outline: as §1

[8] = tested on: ECHCG, Barnyardgrass, Echinochloa crusgalli, (L.)Beau; experiment: Preemergence herbicidal evaluation (Example 148); conditions: rating scale 0-9, two to four weeks after treatment
Outline: as §1

[9] = tested on: XANST, Cocklebur, Xanthium strumariam; experiment: Preemergence herbicidal evaluation (Example 148); conditions: rating scale 0-9, two to four weeks after treatment
Outline: as §1

[10] = tested on: ALOMY, Blackgrass, Alopecurus myosuroides; experiment: Preemergence herbicidal evaluation (Example 148); conditions: rating scale 0-9, two to four weeks after treatment
Outline: as §1

[11] = tested on: DIGSA, Crabgrass, (Hairy) L, Digitaria sanguinalis, (L)Scop; experiment: Preemergence herbicidal evaluation (Example 148); conditions: rating scale 0-9, two to four weeks after treatment
Outline: as §1

[12] = tested on: IPOHE, Morningglory, Ivyleaf, Ipomoea hederacea, (L)Jacq.; experiment: Preemergence herbicidal evaluation (Example 148); conditions: rating scale 0-9, two to four weeks after treatment
Outline: as §1

[13] = tested on: CHEAL, Lambsquarters, Chenopodium album, L. Common; experiment: Postemergence herbicidal evaluation (Example 147); conditions: rating scale 0-9, two to three weeks after treatment
Outline: (§2)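 About two-week-old seedlings were sprayed postemergence at roughly 0.016–0.032 kg/ha in 80/20 acetone/water with 1.0% methylated seed oil. After two to three weeks in the greenhouse, injury was rated visually on a 0–9 scale against controls, and repeat tests were averaged.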

[14] = tested on: GLXMA, Soybean, Glycine max, (L.) Merr.; experiment: Postemergence herbicidal evaluation (Example 147); conditions: rating scale 0-9, two to three weeks after treatment
Outline: as §2

[15] = tested on: SETVI, Green foxtail, Setaria viridis, (L.)Beau; experiment: Postemergence herbicidal evaluation (Example 147); conditions: rating scale 0-9, two to three weeks after treatment
Outline: as §2

[16] = tested on: AMBEL, Ragweed, Common, Ambrosia artemiisifolia, L.; experiment: Postemergence herbicidal evaluation (Example 147); conditions: rating scale 0-9, two to three weeks after treatment
Outline: as §2

[17] = tested on: TRZAW, Winter wheat, Tritium Aestivum, L. (Winter); experiment: Postemergence herbicidal evaluation (Example 147); conditions: rating scale 0-9, two to three weeks after treatment
Outline: as §2

[18] = tested on: ZEAMX, Field corn, Zea mays L.; experiment: Postemergence herbicidal evaluation (Example 147); conditions: rating scale 0-9, two to three weeks after treatment
Outline: as §2

[19] = tested on: ABUTH, Velvetleaf, Abutilon theophrasti, Medic.; experiment: Postemergence herbicidal evaluation (Example 147); conditions: rating scale 0-9, two to three weeks after treatment
Outline: as §2

[20] = tested on: ECHCG, Barnyardgrass, Echinochloa crusgalli, (L.)Beau; experiment: Postemergence herbicidal evaluation (Example 147); conditions: rating scale 0-9, two to three weeks after treatment
Outline: as §2

[21] = tested on: XANST, Cocklebur, Xanthium strumariam; experiment: Postemergence herbicidal evaluation (Example 147); conditions: rating scale 0-9, two to three weeks after treatment
Outline: as §2

[22] = tested on: ALOMY, Blackgrass, Alopecurus myosuroides; experiment: Postemergence herbicidal evaluation (Example 147); conditions: rating scale 0-9, two to three weeks after treatment
Outline: as §2

[23] = tested on: DIGSA, Crabgrass, (Hairy) L, Digitaria sanguinalis, (L)Scop; experiment: Postemergence herbicidal evaluation (Example 147); conditions: rating scale 0-9, two to three weeks after treatment
Outline: as §2

[24] = tested on: IPOHE, Morningglory, Ivyleaf, Ipomoea hederacea, (L)Jacq.; experiment: Postemergence herbicidal evaluation (Example 147); conditions: rating scale 0-9, two to three weeks after treatment
Outline: as §2

## CN(CCC#N)S(=O)(=O)NC(=O)c1cc(-n2c(=O)cc(C(F)(F)F)n(C)c2=O)c(F)cc1Cl [Example 84]
[1]; rate 0.125 kg/ha
  Preemergence herbicidal rating CHEAL: 9.0
[1]; rate 0.25 kg/ha
  Preemergence herbicidal rating CHEAL: 9.0
[2]; rate 0.125 kg/ha
  Preemergence herbicidal rating GLXMA: 2.0
[2]; rate 0.25 kg/ha
  Preemergence herbicidal rating GLXMA: 7.0
[3]; rate 0.125 kg/ha
  Preemergence herbicidal rating SETVI: 7.0
[3]; rate 0.25 kg/ha
  Preemergence herbicidal rating SETVI: 7.0
[4]; rate 0.125 kg/ha
  Preemergence herbicidal rating AMBEL: 9.0
[4]; rate 0.25 kg/ha
  Preemergence herbicidal rating AMBEL: 9.0
[5]; rate 0.125 kg/ha
  Preemergence herbicidal rating TRZAW: 0.0
[5]; rate 0.25 kg/ha
  Preemergence herbicidal rating TRZAW: 2.0
[6]; rate 0.125 kg/ha
  Preemergence herbicidal rating ZEAMX: 0.0
[6]; rate 0.25 kg/ha
  Preemergence herbicidal rating ZEAMX: 1.0
[7]; rate 0.125 kg/ha
  Preemergence herbicidal rating ABUTH: 9.0
[7]; rate 0.25 kg/ha
  Preemergence herbicidal rating ABUTH: 9.0
[8]; rate 0.125 kg/ha
  Preemergence herbicidal rating ECHCG: 5.0
[8]; rate 0.25 kg/ha
  Preemergence herbicidal rating ECHCG: 6.0
[9]; rate 0.125 kg/ha
  Preemergence herbicidal rating XANST: 9.0
[9]; rate 0.25 kg/ha
  Preemergence herbicidal rating XANST: 9.0
[10]; rate 0.125 kg/ha
  Preemergence herbicidal rating ALMOY: 0.0
[10]; rate 0.25 kg/ha
  Preemergence herbicidal rating ALMOY: 1.0
[11]; rate 0.125 kg/ha
  Preemergence herbicidal rating DIGSA: 7.0
[11]; rate 0.25 kg/ha
  Preemergence herbicidal rating DIGSA: 8.0
[12]; rate 0.125 kg/ha
  Preemergence herbicidal rating IPOHE: 9.0
[12]; rate 0.25 kg/ha
  Preemergence herbicidal rating IPOHE: 9.0
[13]; rate 0.016 kg/ha
  Postemergence herbicidal rating CHEAL: 7.0
[13]; rate 0.032 kg/ha
  Postemergence herbicidal rating CHEAL: 9.0
[14]; rate 0.016 kg/ha
  Postemergence herbicidal rating GLXMA: 7.0
[14]; rate 0.032 kg/ha
  Postemergence herbicidal rating GLXMA: 8.5
[15]; rate 0.016 kg/ha
  Postemergence herbicidal rating SETVI: 7.0
[15]; rate 0.032 kg/ha
  Postemergence herbicidal rating SETVI: 8.0
[16]; rate 0.016 kg/ha
  Postemergence herbicidal rating AMBEL: 8.0
[16]; rate 0.032 kg/ha
  Postemergence herbicidal rating AMBEL: 9.0
[17]; rate 0.016 kg/ha
  Postemergence herbicidal rating TRZAW: 5.0
[17]; rate 0.032 kg/ha
  Postemergence herbicidal rating TRZAW: 5.5
[18]; rate 0.016 kg/ha
  Postemergence herbicidal rating ZEAMX: 7.0
[18]; rate 0.032 kg/ha
  Postemergence herbicidal rating ZEAMX: 8.0
[19]; rate 0.016 kg/ha
  Postemergence herbicidal rating ABUTH: 9.0
[19]; rate 0.032 kg/ha
  Postemergence herbicidal rating ABUTH: 9.0
[20]; rate 0.016 kg/ha
  Postemergence herbicidal rating ECHCG: 8.0
[20]; rate 0.032 kg/ha
  Postemergence herbicidal rating ECHCG: 9.0
[21]; rate 0.016 kg/ha
  Postemergence herbicidal rating XANST: 9.0
[21]; rate 0.032 kg/ha
  Postemergence herbicidal rating XANST: 9.0
[22]; rate 0.016 kg/ha
  Postemergence herbicidal rating ALMOY: 1.0
[22]; rate 0.032 kg/ha
  Postemergence herbicidal rating ALMOY: 2.0
[23]; rate 0.016 kg/ha
  Postemergence herbicidal rating DIGSA: 5.0
[23]; rate 0.032 kg/ha
  Postemergence herbicidal rating DIGSA: 6.0
[24]; rate 0.016 kg/ha
  Postemergence herbicidal rating IPOHE: 9.0
[24]; rate 0.032 kg/ha
  Postemergence herbicidal rating IPOHE: 9.0

## CCN(CC)S(=O)(=O)NC(=O)c1cc(-n2c(=O)cc(C(F)(F)F)n(C)c2=O)c(F)cc1Cl [Example 68]
[1]; rate 0.125 kg/ha
  Preemergence herbicidal rating CHEAL: 8.0
[1]; rate 0.25 kg/ha
  Preemergence herbicidal rating CHEAL: 8.0
[2]; rate 0.125 kg/ha
  Preemergence herbicidal rating GLXMA: 7.0
[2]; rate 0.25 kg/ha
  Preemergence herbicidal rating GLXMA: 8.0
[3]; rate 0.125 kg/ha
  Preemergence herbicidal rating SETVI: 4.0
[3]; rate 0.25 kg/ha
  Preemergence herbicidal rating SETVI: 8.0
[4]; rate 0.125 kg/ha
  Preemergence herbicidal rating AMBEL: 9.0
[4]; rate 0.25 kg/ha
  Preemergence herbicidal rating AMBEL: 9.0
[5]; rate 0.125 kg/ha
  Preemergence herbicidal rating TRZAW: 0.0
[5]; rate 0.25 kg/ha
  Preemergence herbicidal rating TRZAW: 0.0
[6]; rate 0.125 kg/ha
  Preemergence herbicidal rating ZEAMX: 1.0
[6]; rate 0.25 kg/ha
  Preemergence herbicidal rating ZEAMX: 2.0
[7]; rate 0.125 kg/ha
  Preemergence herbicidal rating ABUTH: 9.0
[7]; rate 0.25 kg/ha
  Preemergence herbicidal rating ABUTH: 9.0
[8]; rate 0.125 kg/ha
  Preemergence herbicidal rating ECHCG: 3.0
[8]; rate 0.25 kg/ha
  Preemergence herbicidal rating ECHCG: 4.0
[9]; rate 0.125 kg/ha
  Preemergence herbicidal rating XANST: 9.0
[9]; rate 0.25 kg/ha
  Preemergence herbicidal rating XANST: 9.0
[10]; rate 0.125 kg/ha
  Preemergence herbicidal rating ALMOY: 0.0
[10]; rate 0.25 kg/ha
  Preemergence herbicidal rating ALMOY: 0.0
[11]; rate 0.125 kg/ha
  Preemergence herbicidal rating DIGSA: 3.0
[11]; rate 0.25 kg/ha
  Preemergence herbicidal rating DIGSA: 4.0
[12]; rate 0.125 kg/ha
  Preemergence herbicidal rating IPOHE: 9.0
[12]; rate 0.25 kg/ha
  Preemergence herbicidal rating IPOHE: 9.0
[13]; rate 0.016 kg/ha
  Postemergence herbicidal rating CHEAL: 8.0
[13]; rate 0.032 kg/ha
  Postemergence herbicidal rating CHEAL: 8.0
[14]; rate 0.016 kg/ha
  Postemergence herbicidal rating GLXMA: 8.5
[14]; rate 0.032 kg/ha
  Postemergence herbicidal rating GLXMA: 8.5
[15]; rate 0.016 kg/ha
  Postemergence herbicidal rating SETVI: 7.0
[15]; rate 0.032 kg/ha
  Postemergence herbicidal rating SETVI: 9.0
[16]; rate 0.016 kg/ha
  Postemergence herbicidal rating AMBEL: 9.0
[16]; rate 0.032 kg/ha
  Postemergence herbicidal rating AMBEL: 9.0
[17]; rate 0.016 kg/ha
  Postemergence herbicidal rating TRZAW: 5.0
[17]; rate 0.032 kg/ha
  Postemergence herbicidal rating TRZAW: 5.5
[18]; rate 0.016 kg/ha
  Postemergence herbicidal rating ZEAMX: 7.0
[18]; rate 0.032 kg/ha
  Postemergence herbicidal rating ZEAMX: 7.5
[19]; rate 0.016 kg/ha
  Postemergence herbicidal rating ABUTH: 9.0
[19]; rate 0.032 kg/ha
  Postemergence herbicidal rating ABUTH: 9.0
[20]; rate 0.016 kg/ha
  Postemergence herbicidal rating ECHCG: 8.0
[20]; rate 0.032 kg/ha
  Postemergence herbicidal rating ECHCG: 8.0
[21]; rate 0.016 kg/ha
  Postemergence herbicidal rating XANST: 9.0
[21]; rate 0.032 kg/ha
  Postemergence herbicidal rating XANST: 9.0
[22]; rate 0.016 kg/ha
  Postemergence herbicidal rating ALMOY: 1.0
[22]; rate 0.032 kg/ha
  Postemergence herbicidal rating ALMOY: 1.0
[23]; rate 0.016 kg/ha
  Postemergence herbicidal rating DIGSA: 6.0
[23]; rate 0.032 kg/ha
  Postemergence herbicidal rating DIGSA: 6.0
[24]; rate 0.016 kg/ha
  Postemergence herbicidal rating IPOHE: 9.0
[24]; rate 0.032 kg/ha
  Postemergence herbicidal rating IPOHE: 9.0
